Legend:
[1] = Visual observation of direct compression APAP tablets (structural integrity, capping, splitting, surface); assay type: physicochemical; settings: direct compression APAP formula
Protocol: (§1) Direct compression tabletting in a laboratory scale tablet press (Stokes, Model B-2, 16 station rotary tablet press with 3/8'' standard concave punches, obtained from Stokes Co., Warminster, PA) was used to prepare tablets from the following formula: […]
(§2) Tablets weighing from 360-460 mg were formed in the tablet press at pressure settings from A (low) to I (high) by adjusting the weight setting for each pressure setting. Compressibility is expressed as a profile obtained by increasing the pressure setting until the accompanying increases in the tablet hardness measurements leveled off. Tablet hardness was determined on a hydraulic tablet hardness tester (Delamar, Model PT 1000, obtained from VanKel Industries, Edison, New Jersey) in units of Kg/cm².
The starch debranching and tabletting methods of Example 1 were employed to make direct compression tablets according to the formula of Example 1.

[2] = Direct compression tabletting of APAP formula: compression profile (tablet hardness vs. press pressure setting); assay type: physicochemical; settings: 64% APAP, 34.75% binder
Protocol: as §1
All ingredients except the binder were dry blended, screened through a 10 mesh sieve and blended with the binder.
as §2

compressibility and structural integrity of tablets (visual observation) [1]: a. Not compressible.
compressibility and structural integrity of tablets (visual observation) ([1]; listed as acetaminophen (APAP)): does not compress to form a tablet
Tablet Hardness ([2]; machine position A (low pressure setting)): 0 Kg/cm²
Tablet Hardness ([2]; machine position B): 0 Kg/cm²
Tablet Hardness ([2]; machine position C): 0 Kg/cm²
Tablet Hardness ([2]; machine position D): 0 Kg/cm²
Tablet Hardness ([2]; machine position E): 0 Kg/cm²
Tablet Hardness ([2]; machine position F): 0 Kg/cm²
Tablet Hardness ([2]; machine position G): 0 Kg/cm²
Tablet Hardness ([2]; machine position H): 0 Kg/cm²
Tablet Hardness ([2]; machine position I (high pressure setting)): 0 Kg/cm²
SMILES: CC(=O)Nc1ccc(O)cc1 [100% APAP, Acetaminophen]
